According to PMC4776139, “Extended string-like binding of the phosphorylated HP1α N-terminal tail to the lysine 9-methylated histone H3 tail” (Scientific Reports, 2016):

Experiments:
[1] = Small angle X-ray scattering (SAXS); format: physicochemical; details: for association state, in words: SAXS at 5, 10 and 15 mg/ml, no scattering from aggregated protein; for association state, in words / Dmax (maximum particle dimension): pH 6.8, 20 °C; for Rg (radius of gyration) / Estimated molecular weight (association state) / Dmax (maximum particle dimension): SAXS; for Rg (radius of gyration): Guinier plot; for Estimated molecular weight (association state): from I(0)/c compared to hen egg white lysozyme; for Dmax (maximum particle dimension): from P(r) function (GNOM); on Dmax (maximum particle dimension): values in Å; on Rg (radius of gyration): values in Å
Procedure: To confirm the structural differences between unmod-NCD and phos-NCD, small angle X-ray scattering (SAXS) experiments were carried out on CD, unmod-NCD, and phos-NCD. To check inter-particle interference, SAXS data were collect at three different protein concentrations, 5, 10 and 15 mg/ml (Supplementary Fig. S4). The radius of gyration Rg, and the estimated molecular weight from the forward scattering intensity I(0), of CD, unmod-NCD, and phos-NCD are summarized in Fig. 3. […] The Rg value of the CD at the three different protein concentrations was estimated as 14.0 ± 0.3, 13.8 ± 0.3 and 13.7 ± 0.2 Å, which are close to the Rg value calculated from the NMR structure of the CD (15.0 Å).
We converted the scattering profiles at 5 mg/ml to the P(r) function and the estimated maximum particle dimension, Dmax (Fig. 3). […] The Dmax of unmod-NCD (79 Å) and phos-NCD (94 Å) was larger than that of the CD (56 Å). The extended tail of the P(r) function and larger Dmax for unmod-NCD and phos-NCD is due to scattering from the N-terminal tail region in each case.
SAXS measurements were performed at 20 °C with a MicroMax007HF X-ray generator (Rigaku). A PILATUS100K detector (DECTRIS) at a distance of 561 mm from the sample was used to measure scattering intensities. Each sample solution was transferred to a quartz-window cell with a 1 mm path length. Circular averaging of the scattering intensities was carried out to obtain one-dimensional scattering data I(q) as a function of q (q = 4πsinθ/λ, where 2θ is the scattering angle and λ is the X-ray wavelength 1.5418 Å). To correct for interparticle interference, I(q) data were collected at three different protein concentrations (5, 10, and 15 mg/ml in 50 mM KPB (pH 6.8), 500 mM NaCl, and 5 mM DTT.). The total exposure times were 6 hours for 5 mg/ml, and 3 hours for both 10mg/ml and 15mg/ml. […] To estimate the molecular weight of samples, I(q) data were collected for hen egg white lysozyme (5.2 mg/ml in 50 mM KPB (pH 6.8), 500 mM NaCl). The data were processed by using the software applications embedded in the ATSAS package [ http://www.embl-hamburg.de/biosaxs/software.html]. The radius of gyration Rg and forward scattering intensity I(0) were estimated from the Guinier plot[35] of I(q) in the smaller angle region of qRg < 1.3. The distance distribution function P(r) was calculated in the program GNOM[36], where the experimental I(q) data were used in a q-range from 0.031 to 0.250 Å^−1. The maximum particle dimension Dmax was estimated from the P(r) function as the distance r for which P(r) = 0[35]. The I(q) and Rg of 20 models corresponding to the NMR structures were calculated by using the program CRYSOL[37] and averaged. The molecular weight of the sample was estimated by comparing I(0)/c (where c is the protein concentration) of the sample to that of lysozyme.

[2] = HSQC dilution check for dimer or multimer association; format: physicochemical; details: 10-fold diluted samples
Source text: It might be possible that the differences in chemical shift observed between unmod-NCD and phos-NCD originate from different dimer or multimer associations due to their N-terminal tails.

[3] = test system: H3K9me peptide (22-mer, amino acids 1–21 of histone H3 with a C-terminal tyrosine); test: Isothermal titration calorimetry (ITC) of HP1α chromodomain constructs with H3K9me peptide; format: binding; details: for ΔS (entropy change) / Ka / ΔH (enthalpy change) / Kd: 20 °C; for ΔS (entropy change): calculated from Kd and ΔH; for Ka / ΔH (enthalpy change): pH 6.80, one-site binding model; for Kd: 20 mM KPB (pH 6.80), 10 mM NaCl; for fold weaker binding to H3K9me as compared with NCD^Δ1–9: relative to NCD^Δ1–9; for fold stronger binding to H3K9me than the CD alone: relative to CD (NCD^Δ1–19); for times more strongly bound H3K9me than the CD: relative to CD
Procedure: Protein solution (40 μM) was loaded into a VP-ITC isothermal titration calorimeter (Microcal, INC.) cell (active cell volume 1.4 ml). The solution was titrated against 400 μM ligand solution via a 250 μl titration syringe. Experiments were carried out at 20 °C. The ligand solution was prepared in the same buffer as the protein (20 mM KPB (pH 6.80), 10 mM NaCl). The heat of dilution generated by the ligand was subtracted, and the binding isotherms were fitted to a one-site binding model by using Origin 7 Software (Microcal, INC.). From the values of Kd and ΔH, the thermodynamic parameters, ΔG and ΔS were calculated according to the basic thermodynamic equations;

[4] = 5 mg/ml, exposure 1 h x6, 50 mM KPB (pH 6.8), 500 mM NaCl, 5 mM DTT, 20 °C
[5] = 10 mg/ml, exposure 1 h x3, pH 6.8, 20 °C
[6] = 15 mg/ml, exposure 1 h x3, pH 6.8, 20 °C
[7] = VP-ITC, protein 40 μM in cell, titrated with 400 μM H3K9me peptide, one-site binding model

## unmod-NCD: chromodomain with un-phosphorylated N-terminal tail, amino acids 1–80 of HP1α
[1]
  association state, in words: monomer
[1]; [4]
  Rg (radius of gyration): 17.2 ± 0.4 Å
[1]; 5 mg/ml
  Estimated molecular weight (association state): 8.8 kDa
  Dmax (maximum particle dimension): 79 Å
[1]; [5]
  Rg (radius of gyration): 17.0 ± 0.3 Å
[1]; 10 mg/ml
  Estimated molecular weight (association state): 8.5 kDa
[1]; [6]
  Rg (radius of gyration): 17.4 ± 0.3 Å
[1]; 15 mg/ml
  Estimated molecular weight (association state): 8.8 kDa
[2]
  HSQC signal changes upon dilution: no significant signal changes were observed
[3]
  ΔS (entropy change): 3.16 cal/mol/K
  Ka: 564000 ± 25900 M⁻¹
  ΔH (enthalpy change): -6.79 ± 0.04533 kcal/mol
  fold weaker binding to H3K9me as compared with NCD^Δ1–9: 6 -fold
[3]; [7]
  Kd: 1770 nM

## NCD^Δ1–19: CD domain alone, amino acids 20–80 of HP1α
[1]
  association state, in words: monomer
[1]; [4]
  Rg (radius of gyration): 14.0 ± 0.3 Å
[1]; 5 mg/ml
  Estimated molecular weight (association state): 6.6 kDa
  Dmax (maximum particle dimension): 56 Å
[1]; [5]
  Rg (radius of gyration): 13.8 ± 0.3 Å
[1]; 10 mg/ml
  Estimated molecular weight (association state): 6.0 kDa
[1]; [6]
  Rg (radius of gyration): 13.7 ± 0.2 Å
[1]; 15 mg/ml
  Estimated molecular weight (association state): 6.1 kDa
[3]
  ΔS (entropy change): -13.0 cal/mol/K
  Ka: 75000 ± 2300 M⁻¹
  ΔH (enthalpy change): -1.036E4±103.0 cal/mol
[3]; [7]
  Kd: 13300 nM

## NCD^Δ1–9: N-terminal deletion mutant, amino acid 10–80 of HP1α
[3]
  ΔS (entropy change): 5.66 cal/mol/K
  Ka: 6.04e+06 ± 255000 M⁻¹
  ΔH (enthalpy change): -7.435 ± 0.01679 kcal/mol
  fold stronger binding to H3K9me than the CD alone: about 83 -fold
[3]; [7]
  Kd: 160 nM

## phos-NCD^Δ1–9: phosphorylated NCD^Δ1–9 form, amino acids 10–80 of HP1α
[3]; value in nM
  Kd: 40 nM
[3]
  ΔS (entropy change): 12.6 cal/mol/K
  Ka: 2.58e+07 ± 5.24e+06 M⁻¹
  ΔH (enthalpy change): -6.233 ± 0.04246 kcal/mol
  times more strongly bound H3K9me than the CD: more than 300 times
  fold stronger binding to H3K9me than the CD alone: about 330 -fold

## NCD^Δ1–4: N-terminal deletion mutant, amino acids 5–80 of HP1α
[3]
  ΔS (entropy change): 7.75 cal/mol/K
  Ka: 1.31e+06 ± 50700 M⁻¹
  ΔH (enthalpy change): -5.933 ± 0.02294 kcal/mol
  fold weaker binding to H3K9me as compared with NCD^Δ1–9: about 4 -fold
[3]; [7]
  Kd: 760 nM

## phos-NCD^Δ1–4: NCD^Δ1–4 (amino acids 5–80) with phosphorylated serine residues
[3]
  binding to H3K9me relative to un-phosphorylated NCD^Δ1–9, in words: recovered to a value similar to that of un-phosphorylated NCD^Δ1–9
  ΔS (entropy change): 1.14 cal/mol/K
  Ka: 2.61e+06 ± 236000 M⁻¹
  ΔH (enthalpy change): -8.271 ± 0.05999 kcal/mol
[3]; [7]
  Kd: 380 nM

## phos-NCD: chromodomain with phosphorylated N-terminal tail, amino acids 1–80 of HP1α, co-expressed with casein kinase II
[1]
  association state, in words: monomer
[1]; [4]
  Rg (radius of gyration): 18.9 ± 0.4 Å
[1]; 5 mg/ml
  Estimated molecular weight (association state): 11.7 kDa
  Dmax (maximum particle dimension): 94 Å
[1]; [5]
  Rg (radius of gyration): 19.4 ± 0.4 Å
[1]; 10 mg/ml
  Estimated molecular weight (association state): 11.7 kDa
[1]; [6]
  Rg (radius of gyration): 19.8 ± 0.3 Å
[1]; 15 mg/ml
  Estimated molecular weight (association state): 11.9 kDa
[2]
  HSQC signal changes upon dilution: no significant signal changes were observed
[3]
  ΔS (entropy change): 2.23 cal/mol/K
  Ka: 5.87e+06 ± 521000 M⁻¹
  ΔH (enthalpy change): -8.424 ± 0.044 kcal/mol
  times more strongly bound H3K9me than the CD: about 80 times
[3]; [7]
  Kd: 170 nM
[3]; relative to unmod-NCD
  fold stronger affinity for H3K9me than unmod-NCD: approximately 10 -fold

## NCD^Δ1–14: acidic segment plus CD, amino acids 15–80 of HP1α
[3]
  ΔS (entropy change): 1.13 cal/mol/K
  Ka: 397000 ± 40700 M⁻¹
  ΔH (enthalpy change): -7.178 ± 0.1141 kcal/mol
  fold stronger binding to H3K9me than the CD alone: about 5 -fold
[3]; [7]
  Kd: 2520 nM
